Results taken from PMC8287724, “Reducing Auditory Nerve Excitability by Acute Antagonism of Ca^2+-Permeable AMPA Receptors” (Frontiers in Synaptic Neuroscience, 2021).

Tests used:
[1] = tested on: auditory nerve compound action potential (CAP); assay: Auditory nerve CAP after systemic (intraperitoneal) delivery; assay type: in vivo, guinea pig; details: for effect on CAP thresholds: 1 to 22 kHz; for CAP amplitude reduction, on average: after ~1 h, 8 kHz tone bursts at 90 dB SPL
Procedure: This study utilized 21 NIH-strain, pigmented guinea pigs weighing from 400 to 650 g, in accordance with policies and protocols approved by the Institutional Animal Care and Use Committee at Washington University in St. Louis (20180133, 20190035). Animals were anesthetized with intraperitoneal (IP) injection of 100 mg/kg sodium thiobutabarbital (Inactin, Sigma, St. Louis, MO). Once anesthetized, the fur from the head and neck was shaved and a tracheal cannula was placed. The animal was maintained on 0.8–1.2% isoflurane in oxygen using a mechanical ventilator. The ventilator's tidal volume was adjusted to maintain a 5% end-tidal CO2 which was monitored with a CapnoTrue AMP (Bluepoint Medical, Zevenaar, The Netherlands). Body temperature was maintained at 38 degrees C with a DC-powered heating blanket-rectal thermometer (Model 50-7079; Harvard Apparatus). Heart rate and oxygen saturation were monitored with a pulse oximeter (Surgivet, Waukesha, WI). The auditory bulla was exposed ventrally for placement of recording electrodes. The jugular vein was cannulated to maintain hydration with 0.5 mL per hour of Lactated Ringer's solution. To prevent middle ear muscle contractions, vecuronium bromide (0.2 mg/kg) was administered immediately prior to data collection and every 1.5 h thereafter.
As described for local delivery, cochlear output was measured similarly for systemic delivery of IEM-1460 and IEM-1925. Complete details have been previously published (Salt et al., [2013]). Briefly, acoustic tone bursts were applied in a closed sound system. The plastic extension tube of the acoustic assembly (Etymotic Research, ER-10 C) was coupled to the end of the hollow ear bar with the tube tip positioned ~1.5 mm from the tympanic membrane. Stimulus generation and data collection were performed with Tucker Davis System 3 hardware controlled by a custom written program (Microsoft Visual Basic). Stimulus waveforms were routed through a programmable Tucker Davis PA5 attenuator and HB7 headphone amplifier. Stimuli were calibrated from 0.125 to 26 kHz in 1/4 octave steps. A CAP audiogram was obtained at the beginning and end of the experiment. Up to 60 min of baseline audiometric data were obtained prior to drug delivery. Data with baseline changes >20% were excluded. A 13-level tone probe series, at selected frequencies, was repeated at 2-min intervals. Distortion product otoacoustic emissions (DPOAEs) were measured using an ER10C probe system. The two primary tone frequencies were set at 6 kHz (f1) and 7.4 kHz (f2), for a f2/f1-ratio of 1.23, with levels of 65 dB SPL (L1) and 55 dB SPL (L2).
At each probe frequency, CAP peak-to-peak amplitudes were measured from the first trough (N1) to the first peak (P1). Latencies were measured to the trough of N1. Cochlear output was compared before and after intraperitoneal drug delivery. The data were tested for normality using a Kolmogorov-Smirnov test. For CAP amplitude and latency, significance was assessed with the Mann-Whitney U-test. The Wilcoxon signed rank test was used to assess CAP threshold. Friedman test was used to compare concentrations of drug between perilymph and CSF. A p < 0.05 was considered statistically significant. A Bonferroni correction was used when performing multiple comparison testing. All statistical tests were performed with IBM SPSS Statistics Version 27 (SPSS Inc., Chicago, IL, United States).
After at least 30 min of baseline data, 1 mL of Lactated Ringer's was injected into the peritoneal space of the guinea pig as a vehicle control. Then, 13.5 mg/kg IEM-1460 or 8 mg/kg IEM-1925 in Lactated Ringer's was injected into the peritoneal space of the guinea pig. The entire experiment took ~3 h to complete: 1 h for anesthetic induction and surgery, 30 min for sound calibration and CAP threshold measurements, and 2 h for drug delivery, DPOAE and CAP measurements. After collection of perilymph and CSF, the animal was euthanized via saturated KCl delivered directly into the jugular vein. […]

[2] = tested on: pyramidal cells (expressing mainly GluA2-containing CI-AMPARs); set-up: method as in Tikhonov et al., 2000; details: rat hippocampus ref Tikhonov et al., 2000; cited from earlier work
[3] = IP injection: IEM-1460 13.5 mg/kg, IEM-1925 8 mg/kg
[4] = IP injection: IEM-1460 13.5 mg/kg, IEM-1925 8 mg/kg, N = 4

Compound | effect on CAP latency ([1]; IP 13.5 mg/kg, all tone levels, N = 4) | mean difference between pre- and post-injection CAP amplitudes ([1]; IP 13.5 mg/kg, exemplary recording, across tone levels) | relative reduction of CAP amplitude ([1]; IP 13.5 mg/kg, exemplary recording, probes of 40–90 dB SPL) | delay from IP injection to start of CAP reduction [1, 3] | effect on CAP thresholds [1, 4] | CAP amplitude reduction, on average [1, 4] | IC50 [2] | CAP reduction from baseline [1, 3]
C[N+](C)(C)CCCCCNCC12CC3CC(CC(C3)C1)C2 [IEM-1460] | no statistically significant difference | 19.1–269 μV | ~ 50% | 20 to 50 min | not statistically different | ~ 20% | > 500 µM | 
NCCCCCNC1(c2ccccc2)CCCCC1 [IEM-1925] |  |  |  |  | minimal effect | ~ 20% | > 200 µM | > 50%
